This passage reports inhibition results from article PMC7976604 (ACS Catalysis, 2021).

The target of the test is T1, PA0254/HudA (PA0254^UbiX) (Pseudomonas aeruginosa, UniProt Q9I6N5).
T1 sequence (Q9I6N5 1-496): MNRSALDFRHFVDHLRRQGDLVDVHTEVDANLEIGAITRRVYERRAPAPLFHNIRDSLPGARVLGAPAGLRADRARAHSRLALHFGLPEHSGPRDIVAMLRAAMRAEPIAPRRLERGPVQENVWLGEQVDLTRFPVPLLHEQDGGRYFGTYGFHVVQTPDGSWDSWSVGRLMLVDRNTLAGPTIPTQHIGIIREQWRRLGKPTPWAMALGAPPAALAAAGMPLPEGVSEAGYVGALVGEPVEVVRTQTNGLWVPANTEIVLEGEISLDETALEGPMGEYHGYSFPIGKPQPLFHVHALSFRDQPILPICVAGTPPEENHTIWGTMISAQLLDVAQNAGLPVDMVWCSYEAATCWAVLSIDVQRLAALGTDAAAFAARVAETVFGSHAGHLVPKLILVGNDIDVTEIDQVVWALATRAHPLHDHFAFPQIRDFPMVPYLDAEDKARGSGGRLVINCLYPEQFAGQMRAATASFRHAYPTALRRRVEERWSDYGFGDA
The test is described as follows: inhibition of P2C decarboxylation, histidine-eluted enzyme. Type of test: biochemical. The note with it: read-out: % inhibition at 10 mM.

In the case of `c1c[nH]cn1` [imidazole], the inhibition (in general, how much of the control response was suppressed) at 10000 µM was about 50%.
